Source: US20070197452A1, “Treatment of amyloid-related diseases” (priority 2006, published 2007)

Tests used:
[1] = test system: TgCRND8 mice; assay: Cerebral amyloid plaque burden (anti-Aβ immunostaining, image analysis); type: in vivo, mouse; conditions: TgCRND8 mice at six months of age; vs untreated
Procedure: Cerebral amyloid burden. […] To generate sets of systematic uniform random sections, 5 μm serial sections were collected across the entire hemisphere. Sets of sections at 50 μm intervals were used for analyses (10-14 sections/set). Plaques were identified after antigen retrieval with formic acid, and incubation with primary anti-Aβ antibody (Dako M-0872), followed by secondary antibody (Dako StreptABCcomplex/horseradish kit). End products were visualized with DAB and were counter-stained with luxol fast blue. Amyloid plaque burden was assessed with Leco IA-3001 image analysis software interfaced with Leica microscope and Hitachi KP-M1U CCD video camera. Openlab imaging software (Improvision, Lexington, Mass.) was then used to convert micrographs to binary images for plaque number and plaque area determinations. Vascular amyloid burden was defined as amyloid originating from or surrounding blood vessels and was analysed similarly. Cerebral Aβ burden. […] Sets of sections at […] intervals for analyses (10-14 sections per set) were used. Plaques with primary Aβ-specific antibody (Dako M-0872) were identified and visualized with DAB. AP plaque burden was assessed with Openlab imaging software (Improvision) and used to convert micrographs to binary images for determinations of plaque number and plaque area. Vascular Aβ burden was defined as Aβ plaques originating from or surrounding blood vessels and was analyzed similarly. Cerebral Aβ burden. […] To generate sets of systematic uniform random sections, 5 μm serial sections were collected across the entire hemisphere. Sets of sections at 50 μm intervals were used for analyses (10-14 sections/set). Plaques were identified after antigen retrieval with formic acid, and incubation with primary anti-Aβ antibody (Dako M-0872), followed by secondary antibody (Dako StreptABCcomplex/horseradish kit). End products were visualized with DAB and were counter-stained with luxol fast blue. Aβ plaque burden was assessed with Leco IA-3001 image analysis software interfaced with Leica microscope and Hitachi KP-M1U CCD video camera. Openlab imaging software (Improvision, Lexington, Mass.) was then used to convert micrographs to binary images for plaque number and plaque area determinations. Vascular Aβ burden was defined as Aβ plaques originating from or surrounding blood vessels and was analyzed similarly.

[2] = test system: TgCRND8 mice; assay: Morris water maze spatial reference memory test; type: in vivo, mouse; conditions: prophylactic, 6 weeks to 6 months of age
Procedure: Behavioural tests: Morris Water Maze testing was performed as previously described. After non-spatial pre-training, mice underwent place discrimination training for 5 days with 4-trials per day, followed by a cued visible platform to rule out general motivational, learning deficits and motor problems, and a probe trial to evaluate memory. […] Open field test for motor activity was preformed as described previously. Duration of walking, pausing and grooming were analyzed as indices of spontaneous locomotor activity. Sensorimotor function was examined with an EconomexTM accelerating rotarod (Columbus Instruments, Columbus, Ohio), as described elsewhere. The rod was set to accelerate at a rate of 0.2 r.p.m./s, from an initial, constant speed of 5 r.p.m. Latency to fall was recorded in four daily trials, conducted at 30 min intervals. All mice were trained for seven days before testing. The test day performance score for each animal was obtained by summing its latency to fall over the four trials Behavioral tests. Morris water maze testing was carried out as previously described. After nonspatial pretraining, mice underwent place discrimination training for 5 d with four trials per day, followed by a cued visible platform trial and a probe trial. An open-field test for motor activity was carried out as described previously. Sensorimotor function was assessed with an Economex accelerating rotarod (Columbus Instruments) as previously described. Behavioural tests. Morris Water Maze testing was performed as previously described. After non-spatial pre-training, mice underwent place discrimination training for 5 days with 4-trials per day, followed by a cued visible platform to rule out general motivational, learning deficits and motor problems, and a probe trial to evaluate memory. The probe trial was conducted at 72 h after the last testing, and used an annulus-crossing index to assess spatial recall. The annulus-crossing index measures the number of passes over the original platform position relative to passes over the other three quadrants. […] Open field test for motor activity was performed as described previously

[3] = test system: TgCRND8 mice; assay: Survival census (Kaplan-Meier); type: in vivo, mouse; conditions: prophylactic treatment, vs untreated, n=35 per group
Procedure: (§1) Survival Census: The probability of survival was assessed by the Kaplan-Meier technique, computing the probability of survival at every occurrence of death, thus making it suitable for small sample sizes. For the analyses of survival, 35 mice were used for each treatment group. The Tarone-Ware test was used to assess effects of treatments.
as §1, with “census.” for “Census:”, “using” for “by”

[4] = test system: mouse model of Huntington disease; conditions: oral administration; reference [26]; cited from earlier work
[5] = Pilot in vivo studies; conditions: data not shown
[6] = biological target: Aβ (Homo sapiens, UniProt P05067); conditions: reference [11]; cited from earlier work
Sequence of Aβ (P05067 672-713 limits assumed): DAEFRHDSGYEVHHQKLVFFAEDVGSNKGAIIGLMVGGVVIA

[7] = 6-18 grams/day/adult or 86-257 mg/Kg/day; cited from earlier work

## OC[C@@H](O)[C@@H](O)[C@H](O)[C@H](O)CO [mannitol, reference compound]
[1]
  plaque count as measure of total plaque burden: indistinguishable from untreated TgCRND8 mice
[2]
  cognitive performance compared with non-Tg littermates: significantly different from mannitol treated non-Tg littermates
  cognitive performance compared with untreated TgCRND8 mice: no effect on behavior
[2]; listed as Mannitol
  cognitive performance compared with untreated TgCRND8 mice: not significantly different from untreated TgCRND8 mice
[3]
  survival (Kaplan-Meier cumulative survival): not significantly different

## OC[C@H]1O[C@H](O[C@H]2O[C@H](CO)[C@@H](O)[C@H](O)[C@H]2O)[C@H](O)[C@@H](O)[C@@H]1O [trehalose]
[4]
  effects in mouse model of Huntington disease: decreased polyglutamine aggregates in brain, improved motor dysfunction and extended lifespan

## O[C@H]1[C@H](O)[C@@H](O)[C@H](O)[C@@H](O)[C@H]1O [myo-cyclohexanehexol, 1,2,3,5/4,6-(myo-) cyclohexanehexol]
[5]
  benefit in pilot in vivo studies: no significant benefit
[6]
  effectiveness in prior in vitro studies: only weakly effective
[7]
  toxicity: no toxicity
